In brackets after ≈: the same amount, converted by molar mass. Like-named read-outs stand apart in the source and are kept apart here.
What was measured:
[1] = molecular target: T1, human recombinant cathepsin L (Homo sapiens, UniProt P07711); experiment: biochemical; type: biochemical; settings: read-out: Cathepsin L IC50; pH 5.5, Z-Phe-Arg-AMC substrate
T1 construct: made in house; host or cells: Escherichia coli

HEL cells = experiment: Cytotoxicity in mock-infected HEL cells (MTS); type: cell-based, human; settings: mock-infected HEL cells, MTS, mean of 2–3 tests
VeroE6 cells = experiment: Cytotoxicity in mock-infected VeroE6 cells (XTT); type: cell-based, African green monkey; settings: mock-infected Vero E6 cells, three days, XTT
SARS-CoV-2 pseudovirus [2] = experiment: microbe, parasite or virus in culture; type: cell-based; settings: cathepsin-dependent endosomal pathway
S. aureus = experiment: MIC, broth microdilution; type: cell-based; settings: Staphylococcus aureus
S. haemolyticus = experiment: MIC, broth microdilution; type: cell-based; settings: Staphylococcus haemolyticus
E. faecalis = experiment: MIC, broth microdilution; type: cell-based; settings: Enterococcus faecalis
S.pyogenes = experiment: MIC, broth microdilution; type: cell-based; settings: Streptococcus pyogenes
Calu-3 cells = experiment: Cytotoxicity in mock-infected Calu-3 cells (XTT); settings: read-out: CC50, Calu-3 cells, three days
S. epidermidis = experiment: microbe, parasite or virus in culture; type: cell-based; settings: Staphylococcus epidermidis
E. faecium = experiment: microbe, parasite or virus in culture; type: cell-based; settings: Enterococcus faecium
SARS-CoV-2 pseudovirus [3] = experiment: microbe, parasite or virus in culture; type: cell-based; settings: A549-AT cells, TMPRSS2-mediated uptake

T1 sequence (P07711 114-333): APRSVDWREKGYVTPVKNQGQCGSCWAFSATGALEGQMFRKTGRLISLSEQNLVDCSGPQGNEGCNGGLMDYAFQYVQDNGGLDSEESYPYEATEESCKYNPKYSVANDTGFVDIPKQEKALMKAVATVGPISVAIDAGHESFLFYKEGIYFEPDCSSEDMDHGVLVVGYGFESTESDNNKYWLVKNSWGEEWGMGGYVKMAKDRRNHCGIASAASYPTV

CC(=O)N[C@H]1[C@H](O[C@@H]2c3ccc(c(Cl)c3)Oc3cc4cc(c3O)Oc3ccc(cc3Cl)C[C@H]3NC(=O)[C@H](n5cc(COCCCC(F)(F)C(F)(F)C(F)(F)C(F)(F)C(F)(F)C(F)(F)F)nn5)c5ccc(O)c(c5)Oc5cc(O)cc(c5)[C@H](NC3=O)C(=O)N[C@H]4C(=O)N[C@H]3C(=O)N[C@@H]2C(=O)N[C@H](C(=O)O)c2cc(O)cc(O)c2-c2cc3ccc2O)O[C@H](CO)[C@@H](O)[C@@H]1O [Compound 4]
IC50 [1]: 66 ± 1 µM
CC50 (HEL cells): > 100 µM
CC50 (VeroE6 cells): > 100 µM
Inhibition of pseudovirus entry in Vero cells (in words) (SARS-CoV-2 pseudovirus [2]): highly effective
MIC (S. aureus; ATCC 29213 / MSSA, read-out: MIC value, S. aureus ATCC29213, MSSA): 1 µg/mL (≈ 0.542 µM)
MIC (S. aureus; MRSA / USA300, read-out: MIC value, S. aureus USA300, CA-MRSA): 2 µg/mL (≈ 1.08 µM)
MIC (S. aureus; MRSA, read-out: Average MIC value, S. aureus CA-MRSA, 1 strain): 2 µg/mL (≈ 1.08 µM)
MIC (S. aureus; MRSA, read-out: Average MIC value, S. aureus MRSA, 7 strains): 1.71 µg/mL (≈ 0.929 µM)
MIC (S. aureus; MRSA, read-out: MIC value, S. aureus 73OL, MRSA): 2 µg/mL (≈ 1.08 µM)
MIC (S. aureus; MRSA, read-out: MIC value, S. aureus 214OL, MRSA): 2 µg/mL (≈ 1.08 µM)
MIC (S. aureus; MRSA, read-out: MIC value, S. aureus 1041OL, MRSA): 2 µg/mL (≈ 1.08 µM)
MIC (S. aureus; MRSA, read-out: MIC value, S. aureus A6918, MRSA): 1 µg/mL (≈ 0.542 µM)
MIC (S. aureus; MRSA, read-out: MIC value, S. aureus A6919, MRSA): 1 µg/mL (≈ 0.542 µM)
MIC (S. aureus; MRSA, read-out: MIC value, S. aureus Mu50, MRSA): 2 µg/mL (≈ 1.08 µM)
MIC (S. aureus; MRSA, read-out: MIC value, S. aureus N315, MRSA): 2 µg/mL (≈ 1.08 µM)
MIC (S. aureus; MSSA / NEWMAN, read-out: MIC value, S. aureus Newman, MSSA): 2 µg/mL (≈ 1.08 µM)
MIC (S. aureus; MSSA, read-out: Average MIC value, S. aureus MSSA, 4 strains): 1.75 µg/mL (≈ 0.949 µM)
MIC (S. aureus; MSSA, read-out: MIC value, S. aureus MSSA476, MSSA): 2 µg/mL (≈ 1.08 µM)
MIC (S. aureus; MSSA, read-out: MIC value, S. aureus SA564, MSSA): 2 µg/mL (≈ 1.08 µM)
MIC (S. haemolyticus; S. haemolyticus mecA, 6 strains, read-out: Average MIC value): 6.8 µg/mL (≈ 3.69 µM)
MIC (S. haemolyticus; S.haemolyticus DALB_R1, mecA, read-out: MIC value): 8 µg/mL (≈ 4.34 µM)
MIC (S. haemolyticus; S.haemolyticus DALB_R2, mecA, read-out: MIC value): 8 µg/mL (≈ 4.34 µM)
MIC (S. haemolyticus; S.haemolyticus DALB_R3, mecA, read-out: MIC value): 8 µg/mL (≈ 4.34 µM)
MIC (S. haemolyticus; S.haemolyticus DALB_R4, mecA, read-out: MIC value): 8 µg/mL (≈ 4.34 µM)
MIC (S. haemolyticus; S.haemolyticus DALB_R5, mecA, read-out: MIC value): 1 µg/mL (≈ 0.542 µM)
MIC (S. haemolyticus; S.haemolyticus ORI_R1, mecA, read-out: MIC value): 8 µg/mL (≈ 4.34 µM)
MIC (E. faecalis; read-out: Average MIC value, E. faecalis VAN^R,TEI^R/VanA, 1 strain): > 8 µg/mL
MIC (E. faecalis; read-out: Average MIC value, E. faecalis VAN^S, TEI^S, 2 strains): 0.25 µg/mL (≈ 0.136 µM)
MIC (E. faecalis; read-out: MIC value, E.faecalis JH2-2): 0.25 µg/mL (≈ 0.136 µM)
MIC (E. faecalis; read-out: MIC value, E.faecalis OG1RF): 0.25 µg/mL (≈ 0.136 µM)
MIC (E. faecalis; read-out: MIC value, E.faecalis V583, VAN,TEI/VanA): > 8 µg/mL
MIC (S.pyogenes; read-out: MIC value, S.pyogenes H232): 0.0625 µg/mL (≈ 0.0339 µM)
MIC (S.pyogenes; read-out: MIC value, S.pyogenes H550): 0.0625 µg/mL (≈ 0.0339 µM)
MIC (S.pyogenes; read-out: MIC value, S.pyogenes H578): 0.0625 µg/mL (≈ 0.0339 µM)
CC50 (Calu-3 cells): 93 ± 11 µM
MIC (S. epidermidis; read-out: Average MIC value, S. epidermidis mecA, 6 strains): 0.812 µg/mL (≈ 0.44 µM)
MIC (S. epidermidis; read-out: MIC value, S.epidermidis ORI_R1, mecA): 2 µg/mL (≈ 1.08 µM)
MIC (S. epidermidis; read-out: MIC value, S.epidermidis ORI_R2, mecA): 1 µg/mL (≈ 0.542 µM)
MIC (S. epidermidis; read-out: MIC value, S.epidermidis ORI_R3, mecA): 1 µg/mL (≈ 0.542 µM)
MIC (S. epidermidis; read-out: MIC value, S.epidermidis ORI_R4, mecA): 0.25 µg/mL (≈ 0.136 µM)
MIC (S. epidermidis; read-out: MIC value, S.epidermidis TEI_R1, mecA): 0.5 µg/mL (≈ 0.271 µM)
MIC (S. epidermidis; read-out: MIC value, S.epidermidis TEI_R2, mecA): 0.125 µg/mL (≈ 0.0678 µM)
MIC (E. faecium; read-out: Average MIC value, E. faecium VAN^R,TEI^R/VanA, 8 strains): > 8 µg/mL
MIC (E. faecium; read-out: Average MIC value, E. faecium VAN^S, TEI^S, 1 strain): 0.25 µg/mL (≈ 0.136 µM)
MIC (E. faecium; read-out: MIC value, E.faecium E335, VAN,TEI,LNZ/VanA): > 8 µg/mL
MIC (E. faecium; read-out: MIC value, E.faecium E355, VAN,TEI,LNZ/VanA): > 8 µg/mL
MIC (E. faecium; read-out: MIC value, E.faecium E832, VAN,TEI,LNZ/VanA): > 8 µg/mL
MIC (E. faecium; read-out: MIC value, E.faecium E854, VAN,TEI,LNZ/VanA): > 8 µg/mL
MIC (E. faecium; read-out: MIC value, E.faecium E859, VAN,TEI,LNZ/VanA): > 8 µg/mL
MIC (E. faecium; read-out: MIC value, E.faecium E1114, VAN,TEI,LNZ/VanA): > 8 µg/mL
MIC (E. faecium; read-out: MIC value, E.faecium E1131, VAN,TEI,LNZ/VanA): > 8 µg/mL
MIC (E. faecium; read-out: MIC value, E.faecium E1132, VAN,TEI,LNZ/VanA): > 8 µg/mL
MIC (E. faecium; read-out: MIC value, E.faecium TX0016): 0.25 µg/mL (≈ 0.136 µM)
Inhibition of pseudovirus entry in A549-AT cells (in words) (SARS-CoV-2 pseudovirus [3]): active, though less potent

From PMC9511441, “Semisynthetic teicoplanin derivatives with dual antimicrobial activity against SARS-CoV-2 and multiresistant bacteria” (Scientific Reports, 2022)
